Assay results from US20120231482A1, “METHOD, KIT OR DIAGNOSTIC FOR THE DETECTION OF REAGENTS WHICH INDUCE ALTERED CONTRACTILITY” (THE JOHNS HOPKINS UNIVERSITY, priority 2009, published 2012).

Key:
intact trabeculae = test: Steady-state force-[Ca2+]i relationship in intact trabeculae (tetanized with ryanodine); format: cell-based, rat; parameters: [Ca2+]i required for 50% of activation (Ca50): unit not given here
myosin heavy chain α/β = test: Modified biotin switch assay, sites of HNO modification; format: biochemical, rat; conditions: for number of independent observations of peptide: 25 μM NCA or 500 μM AS; for Position of modified Cys: myosin heavy chain (α/β), Table 2
Protocol: (§1) Rat myofibrillar preparations, as described in [7], were obtained from frozen ventricles (Pel Freez Biologicals) minced in 20 volumes/tissue weight of 4° C. relax buffer (SRB (75 mM KCL, 10 mM imidazole pH 7.2, 2 mM MgCl2) plus 4 mM phosphocreatine, 1 mM ATP, 50 mM BDM, 1 mM benzamidine-HCL, 0.1 mM PMSF, 1 μg/ml leupeptin, 1 μg/ml pepstatin, 1% (v/v) Trixon X-100) and adjusted to 10 mM EDTA. Minced preparations were centrifuged for 8 min at 3000xg and the supernant was decanted. Resulting pellets were resuspended in 10 volumes of SRB plus 1% Triton X-100 and subjected to 6 strokes in a Duall tissue homogenizer and centrifuged as above. Pellets were gently resuspended and centrifuged as above twice more in SRB including 1% (v/v) Triton X-100, twice in SRB lacking Triton X-100 and once in K-60 buffer (60 mM KCL, 20 mM MOPS, 2 mM MgCl2 pH 7) before being resuspended in 5 volumes of K-60.
(§2) Detection of HNO modifications by Modified Biotin Switch. HNO modified thiols were detected using a modification to the standard biotin switch protocol. In brief, 100 μg of rat myofibrils/treatment were diluted to 0.5 μg/μl in HEN (250 mM HEPES pH 7.7, 1 mM EDTA and 0.1 mM neocuproine) including 0.1% (w/v) SDS and exposed to a treatment for 10 min at 37° C. which was subsequently removed by acetone precipitation. Remaining free thiols were blocked by addition of 300 μl of HEN including 2.5% (w/v) SDS and 20 mM N-ethylmaleimide (NEM), incubated for 20 min at 50° C. Excess NEM was removed by acetone precipitation. HNO and/or NO modified thiols were reduced using 5 mM DTT or 1 mM ascorbate in 150 μl of HEN including 1% (w/v) SDS and biotinylated with 0.8 mM Biotin-HPDP (Pierce) for one hour at room temperature. Excess biotin-HPDP was removed by acetone precipitation (2 volumes) and resultant pellets were carefully washed with an additional volume of acetone. Biotinylated proteins were resuspended in 1 ml of HEN including 0.1% (w/v) SDS and captured by incubation with 15 μl of washed, packed Ultralink Immobilized Streptavidin (Pierce) for one hour at room temperature. Beads were washed four times in 50 bead volumes of HEN (twice including 0.1% (w/v) SDS, twice including 600 mM NaCl) and twice with EB (20 mM HEPES pH 7.7, 100 mM NaCl, 1 mM EDTA). Captured proteins were eluted with 40 μl of EB containing 100 mM DTT, mixed with 15 μl of 4×LDS sample buffer, boiled, separated by SDS PAGE and silver stained. For MS studies, biotinylated proteins were digested overnight with trypsin (Promega) prior to capture and washed ten additional times with 5 mM ammonium bicarbonate/20% acetonitrile before being eluted in 100 μl of wash buffer including 100 mM DTT as described. Captured peptides were identified using a LTQ linear ion trap tandem mass spectrometer (ThermoFinnigan, Waltham Mass. USA) with data searched against the rat IPI primary sequence database using the sorcerer searching platform (sagen).
(§3) To investigate the modifications that underlie the difference seen in the functional effect of these two compounds we performed an analysis on the myofilament proteins, using a modified biotin-switch method, followed by mass spectrometry for identification (FIG. 3). Following treatment with HNO or control compounds, unmodified cysteines are blocked with NEM before treatment with a reducing agent and labeling the exposed cysteines with a biotin group (FIG. 3A). In this case, 5 mM DTT was used as the reducing agent because it was shown in the physiological studies to reverse the effect of the treatment. […] Tryptic or chymotryptic peptides containing the modified cysteine residues were captured and identified by LC/MS/MS. […] To parse the role of candidate sites of modification between these two effects a comparative proteomics experiment was designed where modifications specific to NCA treatment would be considered candidates for the Ca^2+ effect while sites identified in common between AS and NCA could be candidates for the force effect (FIG. 3C). […]

α actinin = test: as above; format: biochemical, rat; conditions: for number of independent observations of peptide: Cys 889, tryptic peptide ELPPDQAQYCIKR, 25 μM NCA or 500 μM AS; for Position of modified Cys: α-Actinin, Table 2
Protocol: as §1, §2, §3

skeletal muscle = test: Steady-state force-[Ca2+]i relations of skeletal muscle; format: cell-based, rat
Excerpt: FIG. 6. MLC1 Cys81 necessary for increase in Fmax induced by treatment with HNO donors. (a) Sequence alignment comparing isoforms of rat cardiac (SEQ ID NO:16) and skeletal MLC1 (SEQ ID NO:17) in the region surrounding cardiac Cys81. (b) Steady-state force-[Ca^2+]i relations in control (o) versus NCA-treated (•) from cardiac or skeletal trabeculae indicating loss of increase in maximum force with loss of Cys81 in skeletal isoform with NCA (n=5, each group). (c) 2D Gel shift assay (non-reduced, NR and reduced, DTT) using 10 μg of skeletal or cardiac myofibrils indicating loss of higher molecular weight forms of MLC1 in skeletal HNO treated preparations while maintaining higher molecular weight form of TM (n=3).
To determine if MLC1 Cys81 is involved in the increased maximum force production, the effect of HNO donors was investigated in skeletal muscle preparations. Skeletal muscle isoforms of myofilament proteins contain all of the potential target Cys except for MLC1, which lacks the candidate site Cys81 providing a natural mutant sequence (FIG. 6A). […] The same insensitivity of Fmax to AS was also observed in skinned skeletal muscles (data not shown).

[1] = AS applied to isolated trebecula or skinned muscle preparations

| SMILES | Hill (intact trabeculae; NCA 20 μmol/L, intact muscles) | [Ca2+]i required for 50% of activation (Ca50) (intact trabeculae; NCA 20 μmol/L, intact muscles) | maximal Ca2+-activated force (Fmax) (intact trabeculae; NCA 20 μmol/L, intact muscles) | number of independent observations of peptide (myosin heavy chain α/β; Cys 1750, tryptic peptide MDADLSQLQTEVEEAVQECR) | Position of modified Cys (myosin heavy chain α/β) | number of independent observations of peptide (α actinin) | Position of modified Cys (α actinin) | Ca50 (skeletal muscle; skeletal muscle, NCA 25 μmol/L) | Fmax (skeletal muscle; skeletal muscle, NCA 25 μmol/L) | Hill (skeletal muscle; skeletal muscle, NCA 25 μmol/L) | Ca50 (intact trabeculae; [1]) | Hill coefficient (intact trabeculae; [1]) | maximum force of contraction (intact trabeculae; [1]) | number of independent observations of peptide (myosin heavy chain α/β; Cys 907, chymotryptic peptide ADAEERCDQL) | Fmax (skeletal muscle; skinned skeletal muscles, AS, data not shown) |
| --- | --- | --- | --- | --- | --- | --- | --- | --- | --- | --- | --- | --- | --- | --- | --- |
| CC(=O)OC1(N=O)CCCCC1 [NCA, 1-nitrosocyclohexylacetate] | 4.92±0.84 | 0.42±0.01 | 123±18 mN/mm^2 | 2 | 1750(α/β) | 2 | 889 | 0.8 ± 0.1 µM | 33±3.8 mN/mm^2 | 4.36±0.81 | – | – | – | – | – |
| [Na+].[Na+].[O-][N+]([O-])=NO [AS, Angeli's Salt] | – | – | – | – | 907(α/β) | 3 | 889 | – | – | – | without altering | without altering | increase | 2 | insensitivity |
